Results: article PMC12431657, “Discovery and mechanistic insights of dibenzoylmethane as a broad spectrum inhibitor of coronavirus” (PLOS Pathogens, 2025)
Values joined by “and” are separate entries in the source; they are usually repeats but may differ in a detail not shown here. Equal entries are not always repeated.

Legend:
[1] = 1% DBM in the diet, mice; cited from earlier work
HCoV-OC43 [2] = experiment: HCoV-OC43 nucleocapsid protein and caspase-6 in infected cells (Western blot); format: cell-based; details: cells pretreated with serially diluted compound
caspase-6 [3] = target: caspase-6 (Homo sapiens, UniProt P55212); format: cell-based; details: STS-treated cells
IFN signalling = experiment: IFNB1 and IFN-stimulated gene expression (qPCR); format: cell-based
HCoV-OC43 [4] = details: DBM 400 mpk QD
[5] = Metabolic stability in human liver microsomes; format: in vitro ADME; details: average, read-out: T1/2 of metabolism
Experimental: Thus, a pharmacokinetic study was performed for DBM in Sprague-Dawley (SD) rats. Following oral administration of menstruum or DBM at 200 mpk, blood samples from the rats were collected at 2 min, 5 min, 15 min, 30 min, 1 h, 2 h, 4 h, 8 h, and 24 h posttreatment. The concentration of DBM in the plasma was determined by liquid chromatography with tandem mass spectrometry (LC-MS/MS). The minimum effective concentration (MEC) line in the graph represents the EC95 value of DBM (Fig 3C). […] To analyse the metabolic stability of DBM, we incubated human and mouse liver microsomes with DBM. The T1/2 of metabolism was an average of 13.92 min in human liver microsomes and 4.84 min in mouse liver microsomes.

caspase-6 [6] = format: cell-based

Chain of caspase-6 (Homo sapiens, UniProt P55212) (P55212 194-293): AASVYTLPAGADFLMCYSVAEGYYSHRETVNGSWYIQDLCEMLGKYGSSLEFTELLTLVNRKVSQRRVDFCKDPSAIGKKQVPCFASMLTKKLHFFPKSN
Chain of caspase-6 (Homo sapiens, UniProt P55212) (P55212 24-179): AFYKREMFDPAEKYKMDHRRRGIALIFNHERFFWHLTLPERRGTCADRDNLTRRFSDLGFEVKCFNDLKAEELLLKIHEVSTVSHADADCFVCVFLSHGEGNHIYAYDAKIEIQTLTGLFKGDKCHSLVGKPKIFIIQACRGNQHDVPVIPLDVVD

O=C(CC(=O)c1ccccc1)c1ccccc1 [DBM, dibenzoylmethane]
safety of feeding in the diet [1]: safe
virus replication (nucleocapsid protein, Western blot) (HCoV-OC43 [2]): inhibited virus replication
levels of cleaved HCoV-OC43 and SARS-CoV-2 nucleocapsid proteins (caspase-6 [3]): significantly reduces
IFITM3 expression (IFN signalling): 1.19 and 1.66 and 1.36
IFNB1 expression (IFN signalling): 6.09 and 4.34 and 4.64
OAS1 expression (IFN signalling): 1.74 and 2.26 and 1.65
suppression of IFN signalling by caspase-6 and nucleocapsid proteins (IFNB1, ISGs) (IFN signalling): reversed the suppression of IFN signalling
IFN signalling in HCoV-OC43-infected cells (IFN signalling; IFNB1 and ISG mRNA): enhanced IFN signalling
body weight loss during the experiment (HCoV-OC43 [4]; VV116 25 mpk QD): did not show any body weight loss
viral copy numbers in the brain, lungs, and kidneys compared with the vehicle group (HCoV-OC43 [4]; 5 days post infection): significantly fewer viral copy numbers
viral load in the brains lower than in the vehicle group (HCoV-OC43 [4]; Day 5): approximately 6 logs
half-life [5]: 13.9 min
Caspase-6/CASP6 level relative to DMSO (Fig5I) (caspase-6 [6]): 75.9 and 67.7 and 60.2 and 63.8
relative level of CASP6 mRNA (caspase-6 [6]): decreased
